From patent US10357493B2, “Metalloenzyme inhibitor compounds” (Selenity Therapeutics (Bermuda), Ltd., priority 2017, dated 2019)

Experiments:
[1] = biological target: HDAC6 (Homo sapiens (Human), UniProt Q9UBN7); assay: HDAC6 enzymatic assay; assay type: biochemical; conditions: read-out: Human HDAC6 IC50
Outline: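 Following a 17 hour room-temperature incubation of 2 ng HDAC6 with 10 uM substrate and compound, 50 μl developer was added for another 20 minutes, and fluorescence (excitation 360 nm, emission 460 nm) was recorded. Activity was normalized to no-compound (100%) and no-enzyme (0%) wells, and IC50 came from sigmoidal dose-response fitting in Graphpad Prism.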

[2] = biological target: HDAC1 (Homo sapiens (Human), UniProt Q13547); assay: HDAC1 enzymatic assay; assay type: biochemical; conditions: read-out: Human HDAC1 IC50
Sequence of HDAC1 (Q13547 whole entry): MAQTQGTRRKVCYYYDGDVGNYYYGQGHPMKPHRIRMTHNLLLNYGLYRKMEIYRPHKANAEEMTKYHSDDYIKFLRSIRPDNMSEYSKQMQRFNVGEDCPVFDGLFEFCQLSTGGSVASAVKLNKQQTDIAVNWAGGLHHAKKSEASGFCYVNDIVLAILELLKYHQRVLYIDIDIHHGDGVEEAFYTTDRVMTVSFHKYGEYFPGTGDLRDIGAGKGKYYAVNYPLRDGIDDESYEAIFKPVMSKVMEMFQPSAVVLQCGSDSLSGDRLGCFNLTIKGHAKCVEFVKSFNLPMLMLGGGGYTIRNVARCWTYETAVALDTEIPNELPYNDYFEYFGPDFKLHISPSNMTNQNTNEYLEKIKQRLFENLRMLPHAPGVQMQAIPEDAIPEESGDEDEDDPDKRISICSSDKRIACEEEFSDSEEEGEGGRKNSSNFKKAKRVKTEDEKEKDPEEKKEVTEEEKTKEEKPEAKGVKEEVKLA
Outline: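 Compound inhibition of human HDAC1 (0.5 ng enzyme, 10 uM substrate) was assessed by fluorescence after developer treatment, excitation 360 nm and emission 460 nm. Percent activity was normalized to no-compound (100%) and no-enzyme (0%) controls, plotted against concentration, and fitted to a sigmoidal dose-response curve in Graphpad Prism to obtain IC50 at half-maximal activity.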

Sequence of HDAC6 (Q9UBN7 whole entry): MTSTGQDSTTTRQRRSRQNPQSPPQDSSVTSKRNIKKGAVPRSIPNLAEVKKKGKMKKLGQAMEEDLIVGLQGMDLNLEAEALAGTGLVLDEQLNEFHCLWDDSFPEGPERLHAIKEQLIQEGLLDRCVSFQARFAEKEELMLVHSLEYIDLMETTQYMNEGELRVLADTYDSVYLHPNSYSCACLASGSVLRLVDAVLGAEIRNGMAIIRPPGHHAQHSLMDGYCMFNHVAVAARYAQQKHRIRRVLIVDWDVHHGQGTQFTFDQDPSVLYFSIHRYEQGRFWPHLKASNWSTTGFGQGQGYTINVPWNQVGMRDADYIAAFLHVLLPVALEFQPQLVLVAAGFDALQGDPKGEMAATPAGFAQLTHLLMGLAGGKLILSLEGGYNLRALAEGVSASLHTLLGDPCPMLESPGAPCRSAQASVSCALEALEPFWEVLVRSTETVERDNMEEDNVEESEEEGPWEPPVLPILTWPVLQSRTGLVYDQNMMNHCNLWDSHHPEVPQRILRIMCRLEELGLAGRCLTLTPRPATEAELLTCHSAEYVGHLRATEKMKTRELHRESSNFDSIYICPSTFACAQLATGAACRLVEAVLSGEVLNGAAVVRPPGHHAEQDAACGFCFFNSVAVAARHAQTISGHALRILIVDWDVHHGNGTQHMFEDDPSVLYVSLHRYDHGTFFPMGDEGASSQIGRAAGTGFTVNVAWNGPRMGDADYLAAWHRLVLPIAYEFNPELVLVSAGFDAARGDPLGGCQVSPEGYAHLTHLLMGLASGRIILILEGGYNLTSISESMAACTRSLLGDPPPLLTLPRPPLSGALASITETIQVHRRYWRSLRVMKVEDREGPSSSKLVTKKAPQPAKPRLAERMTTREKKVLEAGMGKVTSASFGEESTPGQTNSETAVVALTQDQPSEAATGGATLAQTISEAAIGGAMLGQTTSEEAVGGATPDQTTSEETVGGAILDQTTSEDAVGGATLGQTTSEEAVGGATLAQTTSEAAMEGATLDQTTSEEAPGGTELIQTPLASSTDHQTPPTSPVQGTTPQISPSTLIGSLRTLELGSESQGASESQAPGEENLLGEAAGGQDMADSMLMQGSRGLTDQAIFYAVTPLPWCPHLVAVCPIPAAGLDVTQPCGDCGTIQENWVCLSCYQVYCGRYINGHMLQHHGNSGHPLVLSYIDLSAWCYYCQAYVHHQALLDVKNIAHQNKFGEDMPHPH

IC50 [1] [nM] | IC50 [2] [nM] | SMILES
42 | > 30000 | Fc1cc(Cl)ccc1C1(Nc2ncc(-c3nnc(C(F)F)o3)cn2)CC1 [Example 66]
190 | > 30000 | Fc1ccc(C2(Nc3ncc(-c4nnc(C(F)F)o4)cn3)CC2)nc1 [Example 67, 5-(5-(difluoromethyl)-1,3,4-oxadiazol-2-yl)-N-(1-(5-fluoropyridin-2-yl)cyclopropyl) pyrimidin-2-amine]
100 | > 30000 | FC(F)c1nnc(-c2cnc(NC3(c4ccc(OCC(F)(F)F)cc4)CC3)nc2)o1 [Example 68, 5-(5-(difluoromethyl)-1,3,4-oxadiazol-2-yl)-N-(1-(4-(2,2,2-trifluoroethoxy)phenyl)cyclopropyl) pyrimidin-2-amine]
130 | > 30000 | CS(=O)(=O)NCc1ccc(C2(Nc3ncc(-c4nnc(C(F)F)o4)cn3)CC2)cc1 [Example 69, N-(4-(1-((5-(5-(difluoromethyl)-1,3,4-oxadiazol-2-yl)pyrimidin-2-yl)amino)cyclopropyl)benzyl) methanesulfonamide]
100 | > 30000 | Fc1cc(OC(F)(F)F)ccc1C1(Nc2ncc(-c3nnc(C(F)F)o3)cn2)CC1 [Example 70, 5-(5-(difluoromethyl)-1,3,4-oxadiazol-2-yl)-N-(1-(2-fluoro-4-(trifluoromethoxy)phenyl)cyclopropyl)pyrimidin-2-amine]
100 | > 30000 | Fc1cc(C(F)(F)F)ccc1C1(Nc2ncc(-c3nnc(C(F)F)o3)cn2)CC1 [Example 71, 5-(5-(difluoromethyl)-1,3,4-oxadiazol-2-yl)-N-(1-(2-fluoro-4-(trifluoromethyl)phenyl)cyclopropyl)pyrimidin-2-amine]
35 | > 30000 | Fc1cc(F)cc(C2(Nc3ncc(-c4nnc(C(F)F)o4)cn3)CC2)c1 [Example 72, 5-(5-(difluoromethyl)-1,3,4-oxadiazol-2-yl)-N-(1-(3,5-difluorophenyl)cyclopropyl) pyrimidin-2-amine]
17 | > 30000 | Fc1c(Cl)cccc1C1(Nc2ncc(-c3nnc(C(F)F)o3)cn2)CC1 [Example 73, N-(1-(3-chloro-2-fluorophenyl)cyclopropyl)-5-(5-(difluoromethyl)-1,3,4-oxadiazol-2-yl)pyrimidin-2-amine]
19 | > 30000 | Fc1cc(F)c(C2(Nc3ncc(-c4nnc(C(F)F)o4)cn3)CC2)c(F)c1 [Example 74, 5-(5-(difluoromethyl)-1,3,4-oxadiazol-2-yl)-N-(1-(2,4,6-trifluorophenyl)cyclopropyl) pyrimidin-2-amine]
38 | > 30000 | Fc1ccc(OC(F)(F)F)cc1C1(Nc2ncc(-c3nnc(C(F)F)o3)cn2)CC1 [Example 75, 5-(5-(difluoromethyl)-1,3,4-oxadiazol-2-yl)-N-(1-(2-fluoro-5-(trifluoromethoxy)phenyl)cyclopropyl)pyrimidin-2-amine]
14 | > 30000 | Fc1ccc(Cl)cc1C1(Nc2ncc(-c3nnc(C(F)F)o3)cn2)CC1 [Example 76, N-(1-(5-chloro-2-fluorophenyl)cyclopropyl)-5-(5-(difluoromethyl)-1,3,4-oxadiazol-2-yl)pyrimidin-2-amine]
28 | > 30000 | Cc1cccc(C2(Nc3ncc(-c4nnc(C(F)F)o4)cn3)CC2)c1Cl [Example 77, N-(1-(2-chloro-3-methylphenyl)cyclopropyl)-5-(5-(difluoromethyl)-1,3,4-oxadiazol-2-yl)pyrimidin-2-amine]
76 | > 30000 | O=C(NCC(Nc1ncc(-c2nnc(C(F)F)o2)cn1)c1ccc(F)cc1)c1ccccc1 (stereo not shown) [Example 79, N-(2-((5-(5-(difluoromethyl)-1,3,4-oxadiazol-2-yl)pyrimidin-2-yl)amino)-2-(4-fluorophenyl)ethyl)benzamide]
23 | > 30000 | Fc1ccc(Cl)c(C2(Nc3ncc(-c4nnc(C(F)F)o4)cn3)CC2)c1 [Example 80, N-(1-(2-chloro-5-fluorophenyl)cyclopropyl)-5-(5-(difluoromethyl)-1,3,4-oxadiazol-2-yl)pyrimidin-2-amine]
210 | > 30000 | FC(F)c1nnc(-c2cnc(NC3(c4cc(C(F)(F)F)ccc4Cl)CC3)nc2)o1 [Example 81, N-(1-(2-chloro-5-(trifluoromethyl)phenyl)cyclopropyl)-5-(5-(difluoromethyl)-1,3,4-oxadiazol-2-yl)pyrimidin-2-amine]
35 | > 30000 | FC(F)c1nnc(-c2cnc(NC3(c4ccnc(Br)c4)CC3)nc2)o1 [Example 82, N-(1-(2-bromopyridin-4-yl)cyclopropyl)-5-(5-(difluoromethyl)-1,3,4-oxadiazol-2-yl)pyrimidin-2-amine]

IC50 [1] [nM] | IC50 [2] [nM] | SMILES
160 | > 30000 | N#Cc1cc(C2(Nc3ncc(-c4nnc(C(F)F)o4)cn3)CC2)ccn1 [Example 83, 4-(1-((5-(5-(difluoromethyl)-1,3,4-oxadiazol-2-yl)pyrimidin-2-yl)amino)cyclopropyl)picolinonitrile]
77 | > 30000 | Fc1cc(OCC(F)(F)F)ccc1C1(Nc2ncc(-c3nnc(C(F)F)o3)cn2)CC1 [Example 84, 5-(5-(difluoromethyl)-1,3,4-oxadiazol-2-yl)-N-(1-(2-fluoro-4-(2,2,2-trifluoroethoxy)phenyl)cyclopropyl)pyrimidin-2-amine]
62 | > 30000 | FC(F)c1nnc(-c2cnc(NC3(c4cccc(C(F)(F)F)c4Cl)CC3)nc2)o1 [Example 85, N-(1-(2-chloro-3-(trifluoromethyl)phenyl)cyclopropyl)-5-(5-(difluoromethyl)-1,3,4-oxadiazol-2-yl)pyrimidin-2-amine]
28 | > 30000 | FC(F)Oc1cccc(C2(Nc3ncc(-c4nnc(C(F)F)o4)cn3)CC2)c1Cl [Example 86, N-(1-(2-chloro-3-(difluoromethoxy)phenyl)cyclopropyl)-5-(5-(difluoromethyl)-1,3,4-oxadiazol-2-yl)pyrimidin-2-amine]
120 | > 30000 | FC(F)c1nnc(-c2cnc(NC3(c4cccc(OCC(F)(F)F)c4Cl)CC3)nc2)o1 [Example 87, N-(1-(2-chloro-3-(2,2,2-trifluoroethoxy)phenyl)cyclopropyl)-5-(5-(difluoromethyl)-1,3,4-oxadiazol-2-yl)pyrimidin-2-amine]
29 | > 30000 | Fc1ccc(C2(Nc3ncc(-c4nnc(C(F)F)o4)cn3)CCC2)cc1 [Example 88]
100 | > 30000 | FC(F)c1nnc(-c2cnc(NC3(c4cc(OCC(F)(F)F)ccc4Cl)CC3)nc2)o1 [Example 89, N-(1-(2-chloro-5-(2,2,2-trifluoroethoxy)phenyl)cyclopropyl)-5-(5-(difluoromethyl)-1,3,4-oxadiazol-2-yl)pyrimidin-2-amine]
35 | > 30000 | Cc1ccc(Cl)c(C2(Nc3ncc(-c4nnc(C(F)F)o4)cn3)CC2)c1 [Example 90, N-(1-(2-chloro-5-methylphenyl)cyclopropyl)-5-(5-(difluoromethyl)-1,3,4-oxadiazol-2-yl)pyrimidin-2-amine]
21 | > 30000 | Fc1cccc(C2(Nc3ncc(-c4nnc(C(F)F)o4)cn3)CC2)c1Cl [Example 91, N-(1-(2-chloro-3-fluorophenyl)cyclopropyl)-5-(5-(difluoromethyl)-1,3,4-oxadiazol-2-yl)pyrimidin-2-amine]
43 | > 30000 | CC(O)C(Nc1ncc(-c2nnc(C(F)F)o2)cn1)c1ccc(F)cc1F (stereo not shown) [Example 93, 1-((5-(5-(difluoromethyl)-1,3,4-oxadiazol-2-yl)pyrimidin-2-yl)amino)-1-(2,4-difluorophenyl)propan-2-ol]
58 | > 30000 | NCC(Nc1ncc(-c2nnc(C(F)F)o2)cn1)c1ccc(F)cc1 (stereo not shown) [Example 96, N1-(5-(5-(difluoromethyl)-1,3,4-oxadiazol-2-yl)pyrimidin-2-yl)-1-(4-fluorophenyl)ethane-1,2-diamine]
34 | > 30000 | CC(C)(Nc1ncc(-c2nnc(C(F)F)o2)cn1)c1ccc(F)cc1F [Example 97, 5-(5-(difluoromethyl)-1,3,4-oxadiazol-2-yl)-N-(2-(2,4-difluorophenyl)propan-2-yl)pyrimidin-2-amine]
16 | > 30000 | CC(C)(Nc1ncc(-c2nnc(C(F)F)o2)cn1)c1c(F)cccc1F [Example 98, 5-(5-(difluoromethyl)-1,3,4-oxadiazol-2-yl)-N-(2-(2,6-difluorophenyl)propan-2-yl)pyrimidin-2-amine]
> 1000 | > 30000 | C[C@H](Nc1ncc(-c2nnc(C(F)F)o2)cn1)c1ccc(F)cc1F [Example 99-S]
92 | > 30000 | Fc1cccc(F)c1C(CC(F)(F)F)Nc1ncc(-c2nnc(C(F)F)o2)cn1 (stereo not shown) [Example 102, 5-(5-(difluoromethyl)-1,3,4-oxadiazol-2-yl)-N-(1-(2,6-difluorophenyl)-3,3,3-trifluoropropyl)pyrimidin-2-amine]
16 | > 30000 | COc1cc(F)c(C2(Nc3ncc(-c4nnc(C(F)F)o4)cn3)CC2)c(F)c1 [Example 106, N-(1-(2,6-difluoro-4-methoxyphenyl)cyclopropyl)-5-(5-(difluoromethyl)-1,3,4-oxadiazol-2-yl)pyrimidin-2-amine]
